Numbers after ± are expanded uncertainties.
Experiments:
[1] = Liquid, Ebulliometric method (Recirculating still)
[2] = refractive index (Na D-line) (dimensionless); details: 298.15 K; 101.33 kPa; Liquid; Standard Abbe refractometry

vapor or sublimation pressure ([1]; 336.63 K) [kPa] | refractive index [2] | vapor or sublimation pressure ([1]; 308.14 K) [kPa] | vapor or sublimation pressure ([1]; 335.63 K) [kPa] | Compound | further results
 | 1.3851 ± 0.0003 |  |  | C=CCCCC [hex-1-ene] | vapor or sublimation pressure ([1]; 328.15 K): 77 ± 0.5 kPa; vapor or sublimation pressure ([1]; 335.74 K): 98.7 ± 0.6 kPa; vapor or sublimation pressure ([1]; 336.09 K): 99.8 ± 0.6 kPa
 | 1.52869 ± 0.00031 | 16.9 ± 0.8 | 49.4 ± 0.8 | c1ccsc1 [thiophene] | 
1572.2 ± 7.7 |  | 786.6 ± 3.5 | 1540 ± 6.2 | COC [dimethyl ether] | vapor or sublimation pressure ([1]; 336.7 K): 1572.2 ± 7.7 kPa

The remaining lines, values behind:

Compound | vapor or sublimation pressure ([1]; 336.63 K) [kPa] | refractive index [2] | vapor or sublimation pressure ([1]; 308.14 K) [kPa] | vapor or sublimation pressure ([1]; 335.63 K) [kPa] | further results
CCSCC [3-thiapentane] | 39.7 ± 0.8 | 1.43998 ± 0.00032 |  |  | 
CC(C)(C)S [2-methyl-2-propanethiol] |  | 1.42 ± 0.00031 |  |  | vapor or sublimation pressure ([1]; 336.69 K): 98.5 ± 0.9 kPa
CCCS [1-propanethiol] |  | 1.4353 ± 0.0003 |  |  | 

Reference: the NIST ThermoML archive (doi:10.1021/je3013028)
